According to patent publication US11926574B2, “Dimethoxyphenylalkylamine activators of serotonin receptors” (Entheogenix Biosciences, Inc., priority 2021, dated 2024):
Structures can show the parent of a compound that is named as a salt.

The compounds below were run against 5HT2A (Homo sapiens, UniProt P28223) (assay: 5HT2A Activity (% Max Activation @ 0.3 uM)).
5HT2A, sequence (P28223 whole entry): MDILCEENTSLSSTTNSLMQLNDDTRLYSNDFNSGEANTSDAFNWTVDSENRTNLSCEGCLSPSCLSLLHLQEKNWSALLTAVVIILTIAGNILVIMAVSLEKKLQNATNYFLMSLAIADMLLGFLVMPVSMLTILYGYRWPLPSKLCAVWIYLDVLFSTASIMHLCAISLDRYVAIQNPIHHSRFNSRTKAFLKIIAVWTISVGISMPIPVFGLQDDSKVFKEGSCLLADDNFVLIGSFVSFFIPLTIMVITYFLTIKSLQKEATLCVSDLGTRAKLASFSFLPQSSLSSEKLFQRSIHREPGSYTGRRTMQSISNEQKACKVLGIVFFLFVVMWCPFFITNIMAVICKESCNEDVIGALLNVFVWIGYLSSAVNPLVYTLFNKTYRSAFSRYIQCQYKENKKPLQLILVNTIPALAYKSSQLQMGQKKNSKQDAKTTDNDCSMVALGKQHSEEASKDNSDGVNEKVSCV
Assay type: cell-based
Compound COc1ccc(OC)c2c1CCC(NCc1cc(C)cc(Cl)c1)C2 (stereo not shown) [Compound 1-1, N-(3-chloro-5-methylbenzyl)-5,8-dimethoxy-1,2,3,4-tetrahydronaphthalen-2-amine] has an Emax at 0.3 µM of 67%. Work on COc1cc(I)c(OC)c2c1CC(NCc1cc(C)cc(Cl)c1)CC2 (stereo not shown) [Compound 1-2A, N-(3-chloro-5-methylbenzyl)-6-iodo-5,8-dimethoxy-1,2,3,4-tetrahydronaphthalen-2-amine] yielded an Emax at 0.3 µM of 73%. Work on COc1ccc(OC)c2c1CCC(NCc1cc(C)cc(F)c1)C2 (stereo not shown) [Compound 1-3, N-(3-fluoro-5-methylbenzyl)-5,8-dimethoxy-1,2,3,4-tetrahydronaphthalen-2-amine] yielded an Emax at 0.3 µM of 76%. For COc1ccc(OC)c2c1CCC(NCc1cc(C)cc(Br)c1)C2 (stereo not shown) [Compound 1-4, N-(3-bromo-5-methylbenzyl)-5,8-dimethoxy-1,2,3,4-tetrahydronaphthalen-2-amine], the Emax at 0.3 µM was 42%. In the case of COc1ccc(OC)c2c1CCC(NCc1cc(C)cc(I)c1)C2 (stereo not shown) [Compound 1-5, N-(3-iodo-5-methylbenzyl)-5,8-dimethoxy-1,2,3,4-tetrahydronaphthalen-2-amine], the Emax at 0.3 µM is reported as 12%. Compound COc1ccc(OC)c2c1CCC(NCc1cccc(Cl)c1C)C2 (stereo not shown) [Compound 1-9, N-(3-chloro-2-methylbenzyl)-5,8-dimethoxy-1,2,3,4-tetrahydronaphthalen-2-amine] has an Emax at 0.3 µM of 7%. COc1ccc(OC)c2c1CCC(NCc1cccc(C)c1Cl)C2 (stereo not shown) [Compound 1-10, N-(2-chloro-3-methylbenzyl)-5,8-dimethoxy-1,2,3,4-tetrahydronaphthalen-2-amine] gave an Emax at 0.3 µM of 2%. In the case of COc1ccc(OC)c2c1CCC(NCc1ccc(Cl)cc1C)C2 (stereo not shown) [Compound 1-11, N-(4-chloro-2-methylbenzyl)-5,8-dimethoxy-1,2,3,4-tetrahydronaphthalen-2-amine], the Emax at 0.3 µM is reported as 1%. In the case of COc1ccc(OC)c2c1CCC(NCc1ccc(C)cc1Cl)C2 (stereo not shown) [Compound 1-12, N-(2-chloro-4-methylbenzyl)-5,8-dimethoxy-1,2,3,4-tetrahydronaphthalen-2-amine], the Emax at 0.3 µM is reported as 4%. COc1ccc(OC)c2c1CCC(NCc1cc(C)ccc1Cl)C2 (stereo not shown) [Compound 1-13, N-(2-chloro-5-methylbenzyl)-5,8-dimethoxy-1,2,3,4-tetrahydronaphthalen-2-Amine] was tested, and the Emax at 0.3 µM was 15%. For COc1ccc(OC)c2c1CCC(NCc1cc(Cl)cc(Cl)c1)C2 (stereo not shown) [Compound 1-15, N-(3,5-dichlorobenzyl)-5,8-dimethoxy-1,2,3,4-tetrahydronaphthalen-2-amine], the Emax at 0.3 µM was 11%. COc1ccc(OC)c2c1CCC(NCc1cccc(Cl)c1Cl)C2 (stereo not shown) [Compound 1-17, N-(2,3-dichlorobenzyl)-5,8-dimethoxy-1,2,3,4-tetrahydronaphthalen-2-amine] showed an Emax at 0.3 µM of 1%. In the case of COc1ccc(OC)c2c1CCC(NCc1ccccc1)C2 (stereo not shown) [Compound 1-18, N-benzyl-5,8-dimethoxy-1,2,3,4-tetrahydronaphthalen-2-amine], the Emax at 0.3 µM is reported as 6%. In the case of COc1cc(C)c(OC)c2c1CC(NCc1cc(C)cc(Cl)c1)CC2 (stereo not shown) [Compound 1-19, N-(3-chloro-5-methylbenzyl)-5,8-dimethoxy-6-methyl-1,2,3,4-tetrahydro-naphthalen-2-amine hydrochloride], the Emax at 0.3 µM is reported as 73%. Compound COc1ccc(OC)c2c1CC(NCc1cc(C)cc(Cl)c1)C2 [Compound 1-20, N-(3-chloro-5-methylbenzyl)-4,7-dimethoxy-2,3-dihydro-1H-inden-2-amine hydrochloride] has an Emax at 0.3 µM of 59%. In the case of COc1ccc(OC)c2c1CCC2NCc1cc(C)cc(Cl)c1 (stereo not shown) [Compound 1-21, N-(3-chloro-5-methylbenzyl)-4,7-dimethoxy-2,3-dihydro-1H-1-inden-1-amine], the Emax at 0.3 µM is reported as 9%. COc1ccc(OC)c(CCNCc2cc(C)cc(F)c2)c1 [Compound 2-2, 2-(2,5-dimethoxyphenyl)-N-(3-fluoro-5-methylbenzyl)ethan-1-amine] showed an Emax at 0.3 µM of 76%. With COc1ccc(OC)c(CCNCc2ccc(C)cc2Cl)c1 [Compound 2-3, N-(2-chloro-4-methylbenzyl)-2-(2,5-dimethoxyphenyl)ethan-1-amine] the Emax at 0.3 µM was 8%. COc1ccc(OC)c(CCNCc2cc(C)ccc2Cl)c1 [Compound 2-4, N-(2-chloro-5-methylbenzyl)-2-(2,5-dimethoxyphenyl)ethan-1-amine] showed an Emax at 0.3 µM of 67%. COc1ccc(OC)c(CCNCc2cc(Cl)cc(Cl)c2)c1 [Compound 2-6, N-(3,5-dichlorobenzyl)-2-(2,5-dimethoxyphenyl)ethan-1-amine] gave an Emax at 0.3 µM of 68%. COc1ccc(OC)c(CCNCc2cccc(Cl)c2Cl)c1 [Compound 2-8, N-(2,3-dichlorobenzyl)-2-(2,5-dimethoxyphenyl)ethan-1-amine] gave an Emax at 0.3 µM of 33%. Compound COc1ccc(OC)c(CCNCc2cc(C)cc([N+](=O)[O-])c2)c1 [Compound 2-9, 2-(2,5-dimethoxyphenyl)-N-(3-methyl-5-nitrobenzyl)ethan-1-amine] has an Emax at 0.3 µM of 5%. With COc1ccc(OC)c(CCNCc2cc(C)cc(Br)c2)c1 [Compound 2-10, N-(3-bromo-5-methylbenzyl)-2-(2,5-dimethoxyphenyl)ethan-1-amine] the Emax at 0.3 µM was 79%. Work on COc1ccc(OC)c(CCNCc2cc(C)cc(I)c2)c1 [Compound 2-11, 2-(2,5-dimethoxyphenyl)-N-(3-iodo-5-methylbenzyl)ethan-1-amine] yielded an Emax at 0.3 µM of 76%. COc1ccc(OC)c(CCNCc2cc(Cl)ccc2C)c1 [Compound 2-12, N-(5-chloro-2-methylbenzyl)-2-(2,5-dimethoxyphenyl)ethan-1-amine] was tested, and the Emax at 0.3 µM was 41%. In the case of COc1ccc(OC)c(CCNCc2ccc(Cl)c(C)c2)c1 [Compound 2-14, N-(4-chloro-3-methylbenzyl)-2-(2,5-dimethoxyphenyl)ethan-1-amine], the Emax at 0.3 µM is reported as 1%. COc1ccc(OC)c(CCNCc2cccc(Cl)c2C)c1 [Compound 2-15] showed an Emax at 0.3 µM of 20%. COc1ccc(OC)c(CCNCc2cccc(C)c2Cl)c1 [Compound 2-16, N-(2-chloro-3-methylbenzyl)-2-(2,5-dimethoxyphenyl)ethan-1-amine] gave an Emax at 0.3 µM of 64%. COc1cc(CCNCc2cc(C)cc(Cl)c2)c(OC)cc1C [Compound 2-18, N-(3-chloro-5-methylbenzyl)-2-(2,5-dimethoxy-4-methylphenyl)ethan-1-amine] was tested, and the Emax at 0.3 µM was 94%. In the case of CCc1cc(OC)c(CCNCc2cc(C)cc(Cl)c2)cc1OC [Compound 2-19, N-(3-chloro-5-methylbenzyl)-2-(4-ethyl-2,5-dimethoxyphenyl)ethan-1-amine], the Emax at 0.3 µM is reported as 84%. COc1cc(CCNCc2cc(C)cc(Cl)c2)c(OC)cc1F [Compound 2-20, N-(3-chloro-5-methylbenzyl)-2-(4-fluoro-2,5-dimethoxyphenyl)ethan-1-amine] was tested, and the Emax at 0.3 µM was 89%. COc1cc(CCNCc2cc(C)cc(Cl)c2)c(OC)cc1Cl [Compound 2-21, 2-(4-chloro-2,5-dimethoxyphenyl)-N-(3-chloro-5-methylbenzyl)ethan-1-amine] was tested, and the Emax at 0.3 µM was 92%. Compound COc1cc(CCNCc2cc(C)cc(Cl)c2)c(OC)cc1Br [Compound 2-22, 2-(4-bromo-2,5-dimethoxyphenyl)-N-(3-chloro-5-methylbenzyl)ethan-1-amine] has an Emax at 0.3 µM of 85%. With COc1cc(CCNCc2cc(C)cc(Cl)c2)c(OC)cc1C#N [Compound 2-23, 4-(2-((3-chloro-5-methylbenzyl)amino)ethyl)-2,5-dimethoxybenzonitrile] the Emax at 0.3 µM was 96%. COc1cc(SC)c(OC)cc1CCNCc1cc(C)cc(Cl)c1 [Compound 2-24, N-(3-chloro-5-methylbenzyl)-2-(2,5-dimethoxy-4-(methylthio)phenyl)ethan-1-amine] was tested, and the Emax at 0.3 µM was 91%. Compound COc1cc([S+](C)[O-])c(OC)cc1CCNCc1cc(C)cc(Cl)c1 (stereo not shown) [Compound 2-25, N-(3-chloro-5-methylbenzyl)-2-(2,5-dimethoxy-4-(methylsulfinyl)phenyl)-ethan-1-amine] has an Emax at 0.3 µM of 95%. For COc1cc(S(C)(=O)=O)c(OC)cc1CCNCc1cc(C)cc(Cl)c1 [Compound 2-26, (3-chloro-5-methylbenzyl)-2-(2,5-dimethoxy-4-(methylsulfonyl)phenyl)ethan-1-amine], the Emax at 0.3 µM was 95%. COc1ccc(OC)c(CC(CO)NCc2cc(C)cc(Cl)c2)c1 (stereo not shown) [Compound 2-29, 2-((3-chloro-5-methylbenzyl)amino)-3-(2,5-dimethoxyphenyl)propan-1-ol] was tested, and the Emax at 0.3 µM was 27%. For COc1ccc(OC)c(C(O)CNCc2cc(C)cc(Cl)c2)c1 (stereo not shown) [Compound 2-30, 2-((3-chloro-5-methylbenzyl)amino)-1-(2,5-dimethoxyphenyl)ethan-1-ol], the Emax at 0.3 µM was 80%. Compound COc1cc(N2CCOCC2)c(OC)cc1CCNCc1cc(C)cc(Cl)c1 [Compound 2-31, N-(3-chloro-5-methylbenzyl)-2-(2,5-dimethoxy-4-morpholinophenyl)ethan-1-amine] has an Emax at 0.3 µM of 41%. Compound COc1ccc(OC)c([C@@H](O)CNCc2cc(C)cc(Cl)c2)c1 [Compound 2-32, (R)-2-((3-chloro-5-methylbenzyl)amino)-1-(2,5-dimethoxyphenyl)ethan-1-ol] has an Emax at 0.3 µM of 83%. COc1ccc(OC)c([C@H](O)CNCc2cc(C)cc(Cl)c2)c1 [Compound 2-33, (S)-2-((3-chloro-5-methylbenzyl)amino)-1-(2,5-dimethoxyphenyl)ethan-1-ol] showed an Emax at 0.3 µM of 39%. With COc1cc([S@](C)(=N)=O)c(OC)cc1CCNCc1cc(C)cc(Cl)c1 [Compound 2-34, (R)-(4-(2-((3-chloro-5-methylbenzyl)amino)ethyl)-2,5-dimethoxyphenyl)(imino)(methyl)-16-sulfanone] the Emax at 0.3 µM was 56%. With COc1cc([S@@](C)(=N)=O)c(OC)cc1CCNCc1cc(C)cc(Cl)c1 [Compound 2-35, (S)-(4-(2-((3-chloro-5-methylbenzyl)amino)ethyl)-2,5-dimethoxyphenyl)(imino)(methyl)-16-sulfanone] the Emax at 0.3 µM was 50%. COc1ccc(OC)c(CCNCc2cc(C)cc(C#N)c2)c1 [Compound 2-36, 3-(((2,5-dimethoxyphenethyl)amino)methyl)-5-methylbenzonitrile] showed an Emax at 0.3 µM of 16%. With COc1ccc(OC)c([C@@H](O)CNCc2cc(C)cc(F)c2)c1 [Compound 2-41, (R)-1-(2,5-dimethoxyphenyl)-2-((3-fluoro-5-methylbenzyl)amino)ethan-1-ol hydrochloride] the Emax at 0.3 µM was 74%.
